Experimental data reported in patent publication US10280179B2, “Spiroquinoxaline derivatives as inhibitors of non-apoptotic regulated cell-death” (Helmholtz Zentrum Munchen—Deutches Forschungszentrum Fur …, priority 2013, dated 2019).
Where two headings read alike, the source gives them in different places.

Assays:
Assay type in all cases: cell-based
Pfa1 cells = assay: Inhibition of non-apoptotic cell death after tamoxifen-induced GPx4 knockout in a recombinant cell line (Example B.4); conditions: Mus musculus, read-out: Pfa1/TAM IC50
Summary of the method: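 Immortalised murine fibroblasts with tamoxifen-inducible CreERT2 for ablation of both GPx4 copies (Pfa1 cells) received tamoxifen on day 0 together with test compound. Cell survival was measured by AlamarBlue after 72 hours.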

[1] = system: mouse hippocampal cell line (Ht22); assay: Inhibition of glutamate-induced non-apoptotic cell death (Example B.2); conditions: HT-22, Ht22 cells
Summary of the method: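 Ht22 cells (2,000/well, DMEM/10% FBS) seeded together with 5 mM glutamate and compound (0.5 pM to 100 μM, triplicate), incubated 72 h at 37 °C/5% CO2. Cell survival then quantified; glutamate alone as negative control, alpha-tocopherol as positive control.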

[2] = Cellular toxicity, same assay as Example B.4 without TAM (Example B.5); conditions: mouse; Pfa1 cells without TAM; read-out: TC50 (the source's name)
Text: Cellular Toxicity of Compounds of the Invention
An estimate of the toxicity for compounds of the invention was obtained by using the same assay as described in Example B.4, but without the addition of TAM. […] Such TC50 values obtained for certain compounds disclosed herein, together with an approximate therapeutic window (estimated by dividing each TC50 by the corresponding IC50 determined from example B.4) are shown in Table 3.

[3] = system: human neuroblastoma cell line SH-SY5Y; assay: Inhibition of BSO-induced non-apoptotic cell death (Example B.1); conditions: SH-SY5Y cells, 72 hours
Text: Inhibition of BSO-Induced Non-Apoptotic Cell Death by Compounds Disclosed Herein
L-Buthionine sulfoximine (BSO) is a well-known glutathione (GSH) depletory, which inhibits gamma-glutamyl-cysteine-synthetase, the enzyme catalyzing the rate-limiting step in GSH biosynthesis. The human neuroblastoma cell line SH-SY5Y is sensitive to BSO-induced intracellular glutathione depletion, which causes high levels of reactive oxygen species (ROS) and cellular stress mimicking cellular conditions following ischemia (cf., e.g., Yamada et al., Neurochem. Int. 59:1003-9 (2011)).
Compounds disclosed herein were evaluated for their ability to promote cell survival upon administration of a lethal dose of BSO to cell-culture medium. Briefly, SH-SY5Y cells (ATCC® CRL-2266™) were propagated in DMEM supplemented with 10% FBS/1% Penicillin-Streptomycin, and then seeded onto 96-well plates at a concentration of 750 cells/well in 100 μL of media, to which BSO (Sigma Aldrich) was added (to a final concentration of 50 μM) together with increasing concentrations of the compound to be tested, and the plates incubated at 37° C./5% CO2 for 72 hours. Compound dilutions (0.5 pM to 100 μM) were prepared from 10 mM stocks dissolved in DMSO and diluted in media. Cells treated with BSO alone were used as negative control and alpha-Tocopherol (Sigma Aldrich) was used as positive control. Compound concentrations were tested in triplicate. After incubation, cell survival was detected using the live/dead cell assay AquaBluer™ (MultiTarget Pharmaceuticals) and quantified using a fluorescence plate reader (excitation filter: 530-560 nm/emission filter: 590 nm) (SpectraMax M4; Molecular Devices). Fluorescence data so obtained was normalised to the percentage of surviving cells and IC50 values calculated using the GraphPad Prism (GraphPad Software, Inc) software package.

[4] = glutamate-induced cell death, read-out: Ht22/GLU
[5] = 50 μM BSO, read-out: SH-SY5Y/BSO IC50

Row | SMILES | IC50 (Pfa1 cells) [nM] | IC50 [1, 4] [nM] | CC50 [2] [nM] | IC50 [3, 5] [nM] | IC50 ([1]; glutamate 5 mM, 72 hours, cell survival, read-out: Ht22/GLU (Example B.2) IC50) [nM] | IC50 ([3]; BSO 50 μM, cell survival (AquaBluer), read-out: SH-SY5Y/BSO (Example B.1) IC50) [nM]
1 | c1ccc(CNC2=Nc3ccccc3NC23CCCCCC3)cc1 [C-214] | < 500 | < 1000 | 10000 to 20000 | < 500 | – | –
2 | CC(=O)NC1CCC2(CC1)Nc1ccccc1N=C2NCc1ccccc1 (stereo not shown) [C-249] | < 5000 | < 5000 | 50000 to 100000 | < 1000 | – | –
3 | c1ccc(CNC2=Nc3cc4c(cc3NC23CCCCC3)OCCO4)cc1 [C-223] | < 200 | < 1000 | 20000 to 50000 | < 500 | – | –
4 | FC(F)(F)c1cccc(CNC2=Nc3cc(Cl)c(Cl)cc3NC23CCNCC3)c1 [N-260] | < 20 | < 50 | 500 to 1000 | < 20 | – | –
5 | Clc1cccc(CNC2=Nc3cc(Cl)c(Cl)cc3NC23CCOCC3)c1 [O/S-94] | < 50 | < 500 | 10000 to 20000 | < 50 | – | –
6 | Cc1cc2c(cc1C)NC1(CCSCC1)C(NCc1ccccc1)=N2 [O/S-369] | < 100 | < 200 | 10000 to 20000 | < 50 | – | –
7 | Clc1cccc(CNC2=Nc3ccccc3NC23CCCCCC3)c1 [C-216] | < 100 | < 500 | 10000 to 20000 | < 50 | – | –
8 | Clc1ccc2c(c1)N=C(NCc1ccccc1)C1(CCCCC1)N2 [C-258] | < 200 | < 500 | 10000 to 20000 | < 50 | – | –
9 | FC1(F)Oc2cc3c(cc2O1)NC1(CCOCC1)C(NCc1ccccc1)=N3 [O/S-366] | < 100 | < 100 | 20000 to 50000 | < 50 | – | –
10 | Fc1ccc(CNC2=Nc3cc(Cl)c(Cl)cc3NC23CCCCC3)c(F)c1 [C-265] | < 500 | < 500 | 10000 to 20000 | < 50 | – | –
11 | Fc1ccc(CNC2=Nc3ccccc3NC23CCOCC3)cc1 [O/S-6] | < 1000 | < 500 | 50000 to 100000 | < 500 | 218 | 68.3
12 | Fc1cc(Cl)ccc1CNC1=Nc2ccccc2NC12CCNCC2 [N-61] | < 50 | < 50 | 20000 to 50000 | < 50 | – | –
13 | CC(NC1=Nc2ccccc2NC12CCSCC2)c1ccccc1 (stereo not shown) [O/S-367] | < 1000 | < 500 | 20000 to 50000 | < 200 | – | –
14 | Clc1cccc(CNC2=Nc3ccccc3NC23CCCCC3)c1 [C-2] | < 100 | < 500 | 10000 to 20000 | < 100 | – | –
15 | Clc1ccccc1CNC1=Nc2ccccc2NC12CCOCC2 [O/S-1] | < 1000 | < 1000 | 50000 to 100000 | < 500 | – | –
16 | Clc1ccc(CNC2=Nc3ccccc3NC23CCNCC3)cc1 [N-3] | < 10 | < 50 | 5000 to 10000 | < 50 | – | –

Row | SMILES | IC50 (Pfa1 cells) [nM] | IC50 [1, 4] [nM] | CC50 [2] [nM] | IC50 [3, 5] [nM] | IC50 ([1]; glutamate 5 mM, 72 hours, cell survival, read-out: Ht22/GLU (Example B.2) IC50) [nM] | IC50 ([3]; BSO 50 μM, cell survival (AquaBluer), read-out: SH-SY5Y/BSO (Example B.1) IC50) [nM]
17 | c1ccc(CNC2=Nc3ccccc3NC23CCOCC3)cc1 [O/S-337] | < 5000 | < 5000 | 50000 to 100000 | < 500 | – | –
18 | FC1(F)Oc2cc3c(cc2O1)NC1(CCCCC1)C(NCc1ccccc1)=N3 [C-256] | < 100 | < 200 | 20000 to 50000 | < 50 | – | –
19 | CC1CCC2(CC1)Nc1ccccc1N=C2NCc1ccccc1 (stereo not shown) [C-252] | < 1000 | < 1000 | 10000 to 20000 | < 200 | – | –
20 | Clc1cccc(CNC2=Nc3ccccc3NC23CCSCC3)c1 [O/S-168] | < 200 | < 500 | 20000 to 50000 | < 100 | – | –
21 | CN1CCC2(CC1)Nc1ccccc1N=C2NCc1cccc(Cl)c1 [N-90] | < 20 | < 200 | 10000 to 20000 | < 50 | – | –
22 | Clc1ccc(CNC2=Nc3cc(Cl)c(Cl)cc3NC23CCNCC3)cc1Cl [N-258] | < 100 | < 50 | 100 to 200 | < 20 | – | –
23 | Fc1cc2c(cc1F)NC1(CCNCC1)C(NCc1ccccc1)=N2 [N-223] | < 50 | < 50 | 20000 to 50000 | < 50 | – | –
24 | Clc1cccc(CNC2=Nc3ccccc3NC23CCOCC3)c1 [O/S-2] | < 500 | < 1000 | 20000 to 50000 | < 200 | – | –
25 | c1ccc(CCNC2=Nc3ccccc3NC23CCSCC3)cc1 [O/S-368] | < 5000 | < 2000 | 20000 to 50000 | < 2000 | – | –
26 | FC(F)(F)c1cccc(CNC2=Nc3cc(Cl)c(Cl)cc3NC23CCCCC3)c1 [C-264] | < 500 | < 500 | 10000 to 20000 | < 50 | – | –
27 | FC(F)(F)c1cccc2c1N=C(NCc1ccccc1)C1(CCCCC1)N2 [C-254] | < 500 | < 500 | 5000 to 10000 | < 50 | – | –
28 | Cc1cccc(CNC2=Nc3cc(Cl)c(Cl)cc3NC23CCOCC3)c1 [O/S-342] | < 50 | < 500 | 20000 to 50000 | < 100 | – | –
29 | CN1CCC2(CC1)Nc1ccccc1N=C2NCc1ccccc1 [N-204] | < 500 | < 500 | 20000 to 50000 | < 50 | – | –
30 | Clc1ccc(CNC2=Nc3ccccc3NC23CCCCC3)cc1Cl [C-228] | < 50 | < 500 | 20000 to 50000 | < 50 | – | –
31 | Clc1cc2c(cc1Cl)NC1(CCOCC1)C(NCc1ccccc1)=N2 [O/S-339] | < 50 | < 200 | 20000 to 50000 | < 20 | – | –
32 | Fc1cccc(F)c1CNC1=Nc2ccccc2NC12CCCCCC2 [C-266] | < 500 | < 500 | 10000 to 20000 | < 100 | – | –
